Laboratory results from PubChem BioAssay AID256 (DTP/NCI, 2004).
Values joined by “and” are separate entries in the source; they are usually repeats but may differ in a detail not shown here. Identical values can stand only once. Toxic doses and inconclusive results are not listed. Rule for the calls: active = survival T/C of 150% or more; inactive = T/C below 125% in these data.

System: CD2F1 mice, L1210 leukemia ip, survival T/C
Assay: NCI In Vivo Anticancer Drug Screen. Data for tumor model L1210 Leukemia (intraperitoneal) in CD2F1 (CDF1) mice
Conditions: endpoint: mean survival time, higher = longer survival
In short: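 Ratio T/C, where T is the treated-group value and C the vehicle-dosed control value, from mice implanted with a transplantable tumor.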

[1] = dose: 100.0 mg/kg/injection, schedule: Q04DX003 (ip), vehicle: saline with Tween-80
[2] = dose: 200.0 mg/kg/injection, schedule: Q04DX003 (ip), vehicle: saline with Tween-80
[3] = dose: 400.0 mg/kg/injection, schedule: Q04DX003 (ip), vehicle: saline with Tween-80
[4] = dose: 100.0 mg/kg/injection, schedule: Q01DX009 (ip), vehicle: saline with Tween-80
[5] = dose: 200.0 mg/kg/injection, schedule: Q01DX009 (ip), vehicle: saline with Tween-80
[6] = dose: 100.0 mg/kg/injection, schedule: Q01DX001 (ip), vehicle: saline with Tween-80
[7] = dose: 200.0 mg/kg/injection, schedule: Q01DX001 (ip), vehicle: saline with Tween-80
[8] = dose: 75.0 mg/kg/injection, schedule: Q01DX001 (ip), vehicle: saline
[9] = dose: 150.0 mg/kg/injection, schedule: Q01DX001 (ip), vehicle: saline
[10] = dose: 300.0 mg/kg/injection, schedule: Q01DX001 (ip), vehicle: saline
[11] = dose: 100.0 mg/kg/injection, schedule: Q04DX002 (ip), vehicle: saline with Tween-80
[12] = dose: 400.0 mg/kg/injection, schedule: Q01DX001 (ip), vehicle: saline with Tween-80

Measured: T/C

N#C/C(N)=C(\C#N)N=C1OCC(O)C(O)C1O (stereo not drawn)
inactive: dose: 12.5 mg/kg/injection, schedule: Q01DX005 (ip), vehicle: other 102 % of control | dose: 25.0 mg/kg/injection, schedule: Q01DX005 (ip), vehicle: other 101 % of control | dose: 50.0 mg/kg/injection, schedule: Q01DX005 (ip), vehicle: other 98 % of control | dose: 100.0 mg/kg/injection, schedule: Q01DX005 (ip), vehicle: other 106 % of control | dose: 200.0 mg/kg/injection, schedule: Q01DX005 (ip), vehicle: other 112 % of control

COC(=O)[CH](C[N+](=O)[O-])[Hg][Cl] (stereo not drawn)
inactive: dose: 6.25 mg/kg/injection, schedule: Q01DX009 (ip), vehicle: saline with Tween-80 97 % of control | dose: 12.5 mg/kg/injection, schedule: Q04DX003 (ip), vehicle: saline 94 % of control

O=C(NCCCl)Nc1ncn[nH]1
inactive: [1] 95 % of control | [2] 98 % of control | [3] 96 % of control

COc1ccc([Si](C)(C)CNCCSS(=O)(=O)O)cc1
inactive: dose: 50.0 mg/kg/injection, schedule: Q01DX009 (ip), vehicle: saline with Tween-80 97 % of control | [4] 103 % of control | [1] 101 % of control | [5] 92 % of control | [2] 95 % of control

CCCCN(CCCC)C(Cl)=Nc1ccccc1
inactive: dose: 6.25 mg/kg/injection, schedule: Q01DX009 (ip), vehicle: Klucel (hydroxypropylcellulose) (HPC) 95 % of control and 105 % of control | dose: 12.5 mg/kg/injection, schedule: Q01DX009 (ip), vehicle: Klucel (hydroxypropylcellulose) (HPC) 92 % of control and 104 % of control | dose: 25.0 mg/kg/injection, schedule: Q01DX009 (ip), vehicle: Klucel (hydroxypropylcellulose) (HPC) 94 % of control and 95 % of control | dose: 50.0 mg/kg/injection, schedule: Q01DX009 (ip), vehicle: Klucel (hydroxypropylcellulose) (HPC) 94 % of control and 95 % of control | dose: 100.0 mg/kg/injection, schedule: Q01DX009 (ip), vehicle: Klucel (hydroxypropylcellulose) (HPC) 93 % of control | dose: 200.0 mg/kg/injection, schedule: Q01DX009 (ip), vehicle: Klucel (hydroxypropylcellulose) (HPC) 90 % of control

O=C(CCl)Nc1ccc(-c2c(NC(=O)CCl)ncc3ccccc23)cc1
inactive: dose: 18.75 mg/kg/injection, schedule: Q04DX003 (ip), vehicle: other 100 % of control | dose: 37.5 mg/kg/injection, schedule: Q04DX003 (ip), vehicle: other 108 % of control | dose: 75.0 mg/kg/injection, schedule: Q04DX003 (ip), vehicle: other 108 % of control | dose: 150.0 mg/kg/injection, schedule: Q04DX003 (ip), vehicle: other 108 % of control

Cc1cc(N=Nc2ccccc2)cc(C)c1N
inactive: [4] 96 % of control | [1] 97 % of control | [5] 102 % of control | [2] 98 % of control | dose: 400.0 mg/kg/injection, schedule: Q01DX009 (ip), vehicle: saline with Tween-80 98 % of control | [3] 110 % of control

Cc1c2c(cc3c1CCC1(C)C(C(C)CCC(C)C(C)C)CC(O)C31O)CCCC2 (stereo not drawn)
inactive: dose: 50.0 mg/kg/injection, schedule: Q01DX001 (ip), vehicle: saline with Tween-80 92 % of control | [6] 94 % of control | [1] 96 % of control | [7] 92 % of control | [2] 98 % of control | [3] 98 % of control

CCCC(C)(C)O
inactive: [1] 104 % of control | [2] 107 % of control | [3] 101 % of control

Cc1cc2sc(C)[n+](CCCOS(=O)(=O)[O-])c2cc1C
inactive: [8] 104 % of control | [9] 104 % of control | [10] 96 % of control

COc1ccc([N+](=O)[O-])cc1NC(=O)Nc1cccc(Cl)c1
inactive: [11] 91 % of control | dose: 200.0 mg/kg/injection, schedule: Q04DX002 (ip), vehicle: saline with Tween-80 97 % of control | dose: 400.0 mg/kg/injection, schedule: Q04DX002 (ip), vehicle: saline with Tween-80 91 % of control

S=C(N/N=C1\C=Cc2ccccc2C1)N/N=C1\C=Cc2ccccc2C1
inactive: dose: 50.0 mg/kg/injection, schedule: Q04DX003 (ip), vehicle: saline 87 % of control | dose: 100.0 mg/kg/injection, schedule: Q04DX003 (ip), vehicle: saline 93 % of control | dose: 200.0 mg/kg/injection, schedule: Q04DX003 (ip), vehicle: saline 93 % of control

CCC[CH2][Sn]([Cl])([CH2]Cl)[CH2]CCC
inactive: dose: 2.5 mg/kg/injection, schedule: Q04DX003 (ip), vehicle: saline 98 % of control | dose: 5.0 mg/kg/injection, schedule: Q04DX003 (ip), vehicle: saline 97 % of control

CCCCCCCCCCCCCCCCOc1ccc(OCCCCCCCCCCCCCCC)cc1
inactive: [6] 88 % of control | [7] 89 % of control | [12] 88 % of control

CSCC12CCCC=C1CC1(CC2)OCCO1 (stereo not drawn)
inactive: [6] 96 % of control | [7] 96 % of control | [12] 96 % of control

Cn1nc(CC#N)c2c(N)ncnc21
inactive: dose: 12.5 mg/kg/injection, schedule: Q01DX005 (ip), vehicle: water 96 % of control | dose: 25.0 mg/kg/injection, schedule: Q01DX005 (ip), vehicle: water 93 % of control | dose: 50.0 mg/kg/injection, schedule: Q01DX005 (ip), vehicle: water 92 % of control | dose: 100.0 mg/kg/injection, schedule: Q01DX005 (ip), vehicle: water 88 % of control | dose: 200.0 mg/kg/injection, schedule: Q01DX005 (ip), vehicle: water 91 % of control

O=S(=O)(C#Cc1ccccc1)c1ccccc1
inactive: dose: 25.0 mg/kg/injection, schedule: Q01DX001 (ip), vehicle: Klucel (hydroxypropylcellulose) (HPC) 95 % of control | dose: 50.0 mg/kg/injection, schedule: Q01DX001 (ip), vehicle: Klucel (hydroxypropylcellulose) (HPC) 102 % of control | dose: 100.0 mg/kg/injection, schedule: Q01DX001 (ip), vehicle: Klucel (hydroxypropylcellulose) (HPC) 100 % of control

CN1C=NN(C)C=N1
inactive: [8] 100 % of control | [9] 97 % of control | [10] 108 % of control

COC/C=N/N(C)C
inactive: [8] 100 % of control | [9] 96 % of control

Cc1ccc(S(=O)(=O)C[n+]2ccc(C(=O)c3ccccc3)cc2)cc1
inactive: dose: 25.0 mg/kg/injection, schedule: Q04DX002 (ip), vehicle: saline with Tween-80 90 % of control | dose: 50.0 mg/kg/injection, schedule: Q04DX002 (ip), vehicle: saline with Tween-80 97 % of control | [11] 97 % of control and 104 % of control
